The source made the active and inactive calls. The rule behind the calls is not given here.
Key:
[1] = molecular target: T1, Glucagon-like peptide 1 receptor (Homo sapiens, UniProt P43220); assay: Agonist activity at human GLP-1R expressed in HEK293 cells incubated for 30 mins and assessed as increase in cAMP accumulation measured by HTRF assay; assay type: functional, cell-based
[2] = molecular target: T1, Glucagon-like peptide 1 receptor; assay: Agonist activity at human GLP-1R expressed in HEK293 cells incubated for 30 mins and assessed as increase in cAMP accumulation measured by HTRF assay relative to control; assay type: functional, cell-based; parameters: concentration or dose not given beside the values; conditions: filed as agonist
Mus musculus [3] = assay: Antidiabetic activity in DIO mouse assessed as reduction in blood glucose at 10 nmol/kg, ip pretreated with compound and followed by glucose challenge and measured by oral glucose tolerance test; assay type: functional, organism-based
Mus musculus [4] = assay: Antidiabetic activity in db/db mouse assessed as reduction in blood glucose at 10 nmol/kg, ip pretreated with compound and followed by glucose challenge and measured by oral glucose tolerance test; assay type: functional, organism-based
Mus musculus [5] = assay: Antidiabetic activity in db/db mouse assessed as reduction in plasma insulin level at 10 nmol/kg, ip pretreated with compound and followed by glucose challenge and measured by oral glucose tolerance test; assay type: functional, organism-based
Mus musculus [6] = assay: Antidiabetic activity in overnight fasted male C57BL/6J mouse at 10 nmol/kg, ip administered at -30 mins and measured by oral glucose tolerance test; assay type: functional, organism-based
Mus musculus [7] = assay: Antidiabetic activity in 2 hrs fasted male C57BL/6J mouse at 10 to 30 nmol/kg, ip administered at 0 mins in presence of somatostatin at 10 mg/kg, sc administered at -30 mins and measured by oral glucose tolerance test; assay type: functional, organism-based; conditions: dose 10-30 nmol/kg
Mus musculus [8] = assay: Antidiabetic activity in male DIO mouse assessed as reduction in acute food intake at 10 nmol/kg, sc measured at 0 to 2 hrs post administration; assay type: functional, organism-based
Mus musculus [9] = assay: Antidiabetic activity in male DIO mouse assessed as reduction in acute food intake at 10 nmol/kg, sc measured at 24 hrs post administration; assay type: functional, organism-based
Mus musculus [10] = assay: Antidiabetic activity in overnight fasted male C57BL/6J mouse assessed as reduction in acute food intake at 30 nmol/kg, sc administered at -0.5 hrs; assay type: functional, organism-based
Rattus norvegicus [11] = assay: Antidiabetic activity in overnight fasted male Sprague-Dawley rat assessed as reduction in food intake at 10 nmol/kg, ip; assay type: functional; parameters: scale not given: the % may be the effect or the level left
Rattus norvegicus [12] = assay: Antidiabetic activity in overnight fasted male Sprague-Dawley rat assessed as reduction in food intake at 300 nmol/kg, ip; assay type: functional; parameters: scale not given: the % may be the effect or the level left
[13] = Toxicity in overnight fasted male Sprague-Dawley rat assessed as induction of Pica behaviour by measuring kaolin intake at 10 to 300 nmol/kg, ip; conditions: in vivo, dose 10-300 nmol/kg
[14] = Cmax in male Sprague-Dawley rat at 25 nmol/kg, iv administered as single dose and measured after 24 hrs by LC-MS/MS analysis; assay type: ADME, organism-based; parameters: dose 25 nmol/kg, time 24 hrs, route iv; conditions: in vivo
[15] = Half-life in male Sprague-Dawley rat at 25 nmol/kg, sc administered as single dose and measured after 24 hrs by LC-MS/MS analysis; assay type: ADME, organism-based; conditions: in vivo
[16] = MRT in male Sprague-Dawley rat at 25 nmol/kg, sc administered as single dose and measured after 24 hrs by LC-MS/MS analysis; assay type: ADME, organism-based; conditions: in vivo
Mus musculus [17] = assay: Antidiabetic activity in male DIO mouse assessed as decrease in cumulative food intake at 100 nmol/kg, sc administered twice daily for 7 days; assay type: functional, organism-based; conditions: time 7.0 day
[18] = Toxicity in male DIO mouse assessed as change in liver AST level at 100 nmol/kg, sc administered twice daily for 7 days; assay type: organism-based; conditions: in vivo, 168 h, time 7 day
[19] = Toxicity in male DIO mouse assessed as change in liver ALT level at 100 nmol/kg, sc administered twice daily for 7 days; assay type: organism-based; conditions: in vivo, 168 h, time 7 day
[20] = Toxicity in male DIO mouse assessed as change in BUN at 100 nmol/kg, sc administered twice daily for 7 days; assay type: organism-based; conditions: in vivo, 168 h, time 7 day
[21] = Toxicity in male DIO mouse assessed as change in serum amylase at 100 nmol/kg, sc administered twice daily for 7 days; assay type: organism-based; conditions: in vivo, 168 h, time 7 day
Mus musculus [22] = assay: Antidiabetic activity in male db/db mouse assessed as decrease in cumulative food intake at 100 nmol/kg, sc administered twice daily for 7 days; assay type: functional, organism-based; conditions: time 7.0 day
[23] = Toxicity in male db/db mouse assessed as change in liver ALT level at 100 nmol/kg, sc administered twice daily for 7 days; assay type: organism-based; conditions: in vivo, 168 h, time 7 day
[24] = Toxicity in male db/db mouse assessed as change in serum amylase at 100 nmol/kg, sc administered twice daily for 7 days; assay type: organism-based; conditions: in vivo, 168 h, time 7 day
Mus musculus [25] = assay: Antidiabetic activity in male db/db mouse assessed as significant reduction in body weight gain at 30 nmol/kg, sc administered twice daily for 35 days; assay type: functional, organism-based; conditions: time 35.0 day
Mus musculus [26] = assay: Antidiabetic activity in male db/db mouse assessed as reduction in food consumption at 30 nmol/kg, sc administered twice daily for 35 days; assay type: functional, organism-based; conditions: time 35.0 day
Mus musculus [27] = assay: Antidiabetic activity in male db/db mouse assessed as decrease in HbA1c level at 30 nmol/kg, sc administered twice daily for 35 days; assay type: functional, organism-based; conditions: time 35.0 day
Mus musculus [28] = assay: Antidiabetic activity in male db/db mouse assessed as increase in islet number at 30 nmol/kg, sc administered twice daily for 35 days; assay type: functional, organism-based; conditions: time 35.0 day
Mus musculus [29] = assay: Antidiabetic activity in male db/db mouse assessed as increase in insulin IOD value at 30 nmol/kg, sc administered twice daily for 35 days; assay type: functional, organism-based; conditions: time 35.0 day
[30] = Toxicity in male db/db mouse assessed as change in liver AST level at 30 nmol/kg, sc administered twice daily for 35 days; assay type: organism-based; conditions: in vivo, 840 h, time 35 day
[31] = Toxicity in male db/db mouse assessed as change in liver ALT level at 30 nmol/kg, sc administered twice daily for 35 days; assay type: organism-based; conditions: in vivo, 840 h, time 35 day
[32] = Toxicity in male db/db mouse assessed as change in BUN level at 30 nmol/kg, sc administered twice daily for 35 days; assay type: organism-based; conditions: in vivo, 840 h, time 35 day
[33] = Toxicity in male db/db mouse assessed as change in serum lipase level at 30 nmol/kg, sc administered twice daily for 35 days; assay type: organism-based; conditions: in vivo, 840 h, time 35 day
Mus musculus [34] = assay: Antidiabetic activity in male […] assessed as reduction in body weight at 30 nmol/kg, sc administered twice daily for 3 weeks; assay type: functional; parameters: scale not given: the % may be the effect or the level left
Mus musculus [35] = assay: Antidiabetic activity in male […] assessed as reduction in food intake at 30 nmol/kg, sc administered twice daily for 3 weeks; assay type: functional, organism-based
Mus musculus [36] = assay: Antidiabetic activity in male […] assessed as reduction in fasted glucose level at 30 nmol/kg, sc administered twice daily for 3 weeks; assay type: functional, organism-based
Mus musculus [37] = assay: Antidiabetic activity in male […] assessed as increase in plasma insulin level at 30 nmol/kg, sc administered twice daily for 3 weeks; assay type: functional, organism-based
Mus musculus [38] = assay: Antidiabetic activity in male […] assessed as increase in plasma FGF21 level at 30 nmol/kg, sc administered twice daily for 3 weeks; assay type: functional, organism-based
Mus musculus [39] = assay: Antidiabetic activity in male […] assessed as decrease in serum LDL-C level at 30 nmol/kg, sc administered twice daily for 3 weeks; assay type: functional, organism-based
Mus musculus [40] = assay: Antidiabetic activity in male […] assessed as increase in serum HDL/LDL ratio at 30 nmol/kg, sc administered twice daily for 3 weeks; assay type: functional, organism-based
[41] = Toxicity in male […] assessed as normalization of hepatic lipid content at 30 nmol/kg, sc administered twice daily for 3 weeks; assay type: organism-based; conditions: in vivo, 504 h

T1 sequence (P43220 whole entry): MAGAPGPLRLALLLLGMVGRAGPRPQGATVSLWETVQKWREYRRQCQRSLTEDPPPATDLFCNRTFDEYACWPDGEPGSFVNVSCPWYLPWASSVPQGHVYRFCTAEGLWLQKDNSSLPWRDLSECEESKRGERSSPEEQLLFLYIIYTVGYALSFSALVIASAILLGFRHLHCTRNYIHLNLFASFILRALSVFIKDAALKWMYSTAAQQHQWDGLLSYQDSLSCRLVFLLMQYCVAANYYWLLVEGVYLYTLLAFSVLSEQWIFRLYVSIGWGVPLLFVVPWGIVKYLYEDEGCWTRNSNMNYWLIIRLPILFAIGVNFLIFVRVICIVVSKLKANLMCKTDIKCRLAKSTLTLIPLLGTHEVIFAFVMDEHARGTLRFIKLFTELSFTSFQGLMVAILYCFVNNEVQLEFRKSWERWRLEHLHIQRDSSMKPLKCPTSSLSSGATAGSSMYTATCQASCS

SMILES: CCCCCCCCCCCCCCCC(=O)N[C@@H](CCC(=O)NCCCC[C@H](NC(=O)[C@H](Cc1ccc(O)cc1)NC(=O)[C@H](CCCCN)NC(=O)[C@H](CO)NC(=O)[C@@H](NC(=O)[C@H](CC(=O)O)NC(=O)[C@H](CC(N)=O)NC(=O)[C@@H](NC(=O)[C@H](Cc1ccc(O)cc1)NC(=O)[C@@H](NC(=O)CNC(=O)[C@H](CCC(N)=O)NC(=O)[C@@H](CO)NC(=O)[C@@H](N)Cc1c[nH]cn1)[C@@H](C)O)[C@@H](C)O)C(C)C)C(=O)N[C@@H](CC(=O)O)C(=O)N[C@@H](CO)C(=O)N[C@@H](CCCNC(=N)N)C(=O)N[C@@H](CCCNC(=N)N)C(=O)N[C@@H](C)C(=O)N[C@@H](CCC(N)=O)C(=O)N[C@@H](CC(=O)O)C(=O)N[C@@H](Cc1ccccc1)C(=O)N[C@H](C(=O)N[C@@H](CCC(=O)O)C(=O)N[C@@H](Cc1c[nH]c2ccccc12)C(=O)N[C@@H](CC(C)C)C(=O)N[C@@H](CCCCN)C(=O)N[C@@H](CC(N)=O)C(=O)NCC(=O)NCC(=O)N1CCC[C@H]1C(=O)N[C@@H](CO)C(=O)N[C@@H](CO)C(=O)NCC(=O)N[C@@H](C)C(=O)N1CCC[C@H]1C(=O)N1CCC[C@H]1C(=O)N1CCC[C@H]1C(=O)N[C@@H](CO)C(N)=O)[C@@H](C)CC)C(=O)O
- EC50 [1]: 0.031 nM
- Activity [2]: 132%
- Activity (Mus musculus [3]): Active
- Activity (Mus musculus [4]): Active
- Activity (Mus musculus [5]): Active
- Activity (Mus musculus [6]): Active
- Activity (Mus musculus [7]): Active
- Activity (Mus musculus [8]): Active
- Activity (Mus musculus [9]): Active
- Activity (Mus musculus [10]): Active
- Activity (Rattus norvegicus [11]): 25%
- Activity (Rattus norvegicus [12]): 33%
- Activity [13]: Non-Toxic
- Cmax [14]: 1510 ng/mL
- half-life [15]: 4 h
- MRT [16]: 7.7 h
- Activity (Mus musculus [17]): Active
- Activity [18]: Non-Toxic
- Activity [19]: Non-Toxic
- Activity [20]: Non-Toxic
- Activity [21]: Non-Toxic
- Activity (Mus musculus [22]): Active
- Activity [23]: Non-Toxic
- Activity [24]: Non-Toxic
- Activity (Mus musculus [25]): Active
- Activity (Mus musculus [26]): Active
- Activity (Mus musculus [27]): Active
- Activity (Mus musculus [28]): Active
- Activity (Mus musculus [29]): Active
- Activity [30]: Non-Toxic
- Activity [31]: Non-Toxic
- Activity [32]: Non-Toxic
- Activity [33]: Non-Toxic
- Activity (Mus musculus [34]): 28.7%
- Activity (Mus musculus [35]): Active
- Activity (Mus musculus [36]): Active
- Activity (Mus musculus [37]): Active
- Activity (Mus musculus [38]): Active
- Activity (Mus musculus [39]): Active
- Activity (Mus musculus [40]): Active
- Activity [41]: Non-Toxic

From ChEMBL document CHEMBL5214890 (Eur J Med Chem, 2021)
